What all share (format): functional
The test system of experiment [1] is HCT-116. Kind of experiment: Induction of apoptosis in human HCT116 cells assessed as viable cells at […] after 24 hrs by Annexin V-FITC/propidium iodide staining based flow cytometry (reference value: 93.64%). As to conditions: HCT-116, 24 h, read-out: Activity. For orientation: Flow cytometry measures light scatter and fluorescence of single cells or particles in a stream.

In experiment [2] the test system is HCT-116. Kind of experiment: Induction of apoptosis in human HCT116 cells assessed as early apoptotic cells at […] after 24 hrs by Annexin V-FITC/propidium iodide staining based flow cytometry (reference value: 2.2%).
Experiment [3] concerns HCT-116. The experiment can be described thus: Induction of apoptosis in human HCT116 cells assessed as late apoptotic cells at […] after 24 hrs by Annexin V-FITC/propidium iodide staining based flow cytometry (reference value: 3.73%).
Experiment [4] has as its system HCT-116. The experiment can be described thus: Induction of apoptosis in human HCT116 cells assessed as necrotic cells at […] after 24 hrs by Annexin V-FITC/propidium iodide staining based flow cytometry (reference value: 0.44%).
Experiment [5] concerns HCT-116. Kind of experiment: Induction of apoptosis in Bax deficient human HCT116 cells assessed as early apoptotic cells at […] after 24 hrs by Annexin V-FITC/propidium iodide staining based flow cytometry (reference value: 0.85%).
Experiment [6] relates to HCT-116. Kind of experiment: Induction of apoptosis in Bax deficient human HCT116 cells assessed as late apoptotic cells at […] after 24 hrs by Annexin V-FITC/propidium iodide staining based flow cytometry (reference value: 1.56%).
Experiment [7] concerns HCT-116. The experiment can be described thus: Induction of apoptosis in human HCT116 cells assessed as early apoptotic cells at 10 uM after 12 hrs by Annexin V-FITC/propidium iodide staining based flow cytometry (reference value: 1.13%).
In experiment [8] the test system is HCT-116. The experiment can be described thus: Induction of apoptosis in human HCT116 cells assessed as late apoptotic cells at 10 uM after 12 hrs by Annexin V-FITC/propidium iodide staining based flow cytometry (reference value: 3.37%).

Consider `OC(CS)C(O)CS` (racemic) [DL-DITHIOTHREITOL], for which, in the experiment with HCT-116 [1], the viability was determined as 88%. In addition, the Activity is on record as 3.12% in the experiment on HCT-116 [2]; 8.67% in the experiment on HCT-116 [3]; 0.21% in the experiment on HCT-116 [4]; 2.99% in the experiment with HCT-116 [5]; 3.5% in the experiment with HCT-116 [6].

Take `CO[C@H]1C(C=O)=CC[C@@H]2C3=C(C(C)C)CC[C@]3(C)CC[C@@]2(C)[C@H]1O`: the Activity in the experiment on HCT-116 [7] came out at 3.83%; with HCT-116 [8] it was 3.68%.

With `CC(=O)N[C@@H](CS)C(=O)O` [ACETYLCYSTEINE], in the experiment with HCT-116 [1], the viability came to 91.8%. The Activity with HCT-116 [2] was found to be 1.86%; with HCT-116 [3], 5.62%; in the experiment with HCT-116 [4], 0.7%; in the experiment on HCT-116 [5] it was 1.21%; in the experiment on HCT-116 [6], 1.75%.
